According to PubChem BioAssay AID1745844 (Carcinogenic Potency Database (CPDB), 2022):
Several values for one entry are separate records, joined by “and”; a condition that tells them apart may be missing. Equal values may be shown once. Activity calls are given as the source filed them. No rule for the calls is given here.

Test system: rodent lifetime carcinogenesis bioassay, tumor incidence TD50
Assay: chronic cancer bioassays in animals – CPDB, compiled studies (AID 1745844)

## CCCCCN(N=O)C(N)=O
rat, strain Donryu, females, in drinking water, site: all sites, lesion: myelocytic leukemia, dosed 65 weeks, study length 65 weeks
  TD50: 19.9 mg/kg/day
rat, strain Donryu, females, in drinking water, site: any site (literature study), lesion: several types, types named in the paper, dosed 65 weeks, study length 65 weeks
  TD50: 1.93 mg/kg/day
rat, strain Donryu, females, in drinking water, site: digestive tract, lesion: several types, types named in the paper, dosed 65 weeks, study length 65 weeks
  TD50: 1.15 mg/kg/day
rat, strain Donryu, females, in drinking water, site: esophagus, lesion: one or several types, types not named, dosed 65 weeks, study length 65 weeks
  TD50: 0.967 mg/kg/day
rat, strain Donryu, females, in drinking water, site: forestomach, lesion: one or several types, types not named, dosed 65 weeks, study length 65 weeks
  TD50: 1.35 mg/kg/day
rat, strain Donryu, females, in drinking water, site: liver, lesion: hepatocellular adenoma, dosed 65 weeks, study length 65 weeks
  TD50: 13.3 mg/kg/day
rat, strain Donryu, females, in drinking water, site: mammary gland, lesion: several types, types named in the paper, dosed 65 weeks, study length 65 weeks
  TD50: 11.9 mg/kg/day
rat, strain Donryu, males, in drinking water, site: all sites, lesion: myelocytic leukemia, dosed 65 weeks, study length 65 weeks
  TD50: 9.17 mg/kg/day
rat, strain Donryu, males, in drinking water, site: any site (literature study), lesion: several types, types named in the paper, dosed 65 weeks, study length 65 weeks
  TD50: 0.541 mg/kg/day
rat, strain Donryu, males, in drinking water, site: digestive tract, lesion: several types, types named in the paper, dosed 65 weeks, study length 65 weeks
  TD50: 0.532 mg/kg/day
rat, strain Donryu, males, in drinking water, site: esophagus, lesion: one or several types, types not named, dosed 65 weeks, study length 65 weeks
  TD50: 1.44 mg/kg/day
rat, strain Donryu, males, in drinking water, site: forestomach, lesion: one or several types, types not named, dosed 65 weeks, study length 65 weeks
  TD50: 0.532 mg/kg/day
rat, strain Fischer 344, females, by gavage, site: forestomach, lesion: one or several types, types not named, dosed 50 weeks, study length 104 weeks
  TD50: 0.478 mg/kg/day
rat, strain Fischer 344, females, by gavage, site: liver, lesion: one or several types, types not named, dosed 50 weeks, study length 104 weeks
  TD50: 4.7 mg/kg/day
rat, strain Fischer 344, females, by gavage, site: lung, lesion: several types, types named in the paper, dosed 50 weeks, study length 104 weeks
  TD50: 1.09 mg/kg/day
rat, strain Fischer 344, females, by gavage, site: mammary gland, lesion: adenocarcinoma, dosed 50 weeks, study length 104 weeks
  TD50: 2.98 mg/kg/day
rat, strain Fischer 344, females, by gavage, site: uterus, lesion: several types, types named in the paper, dosed 50 weeks, study length 104 weeks
  TD50: 0.934 mg/kg/day
rat, strain Fischer 344, males, by gavage, site: all sites, lesion: mesothelioma, dosed 50 weeks, study length 104 weeks
  TD50: 0.865 mg/kg/day
rat, strain Fischer 344, males, by gavage, site: forestomach, lesion: one or several types, types not named, dosed 50 weeks, study length 104 weeks
  carcinogen call: positive
rat, strain Fischer 344, males, by gavage, site: lung, lesion: several types, types named in the paper, dosed 50 weeks, study length 104 weeks
  TD50: 0.546 mg/kg/day

## CC(=O)Nc1nc(-c2ccc([N+](=O)[O-])o2)cs1
hamster, strain Syrian Golden, males, in feed, site: forestomach, lesion: squamous-cell papilloma, dosed 48 weeks, study length 70 weeks
  TD50: 68.1 mg/kg/day
hamster, strain Syrian Golden, males, in feed, site: urinary bladder, lesion: several types, types named in the paper, dosed 48 weeks, study length 70 weeks
  TD50: 8.91 mg/kg/day
hamster, strain Syrian Golden, males, in feed, site: urinary bladder, lesion: squamous-cell carcinoma, dosed 48 weeks, study length 70 weeks
  TD50: 60.2 mg/kg/day
rat, strain Sprague-Dawley, females, in feed, site: kidney/pelvis, lesion: transitional-cell carcinoma, dosed 46 weeks, study length 66 weeks
  TD50: 316 mg/kg/day and 660 mg/kg/day
rat, strain Sprague-Dawley, females, in feed, site: mammary gland, lesion: adenocarcinoma, dosed 46 weeks, study length 66 weeks
  TD50: 36.2 mg/kg/day
rat, strain Sprague-Dawley, females, in feed, site: mammary gland, lesion: fibroadenoma, dosed 46 weeks, study length 66 weeks
  TD50: 56.9 mg/kg/day and 25 mg/kg/day and 30.2 mg/kg/day
rat, strain Sprague-Dawley, females, in feed, site: mammary tissue, wider than the gland, lesion: several types, types named in the paper, dosed 46 weeks, study length 66 weeks
  TD50: 10.5 mg/kg/day

## C[C@@H]1C[C@]2(O[C@@H]2C)C(=O)O[C@@H]2CCN(C)C/C=C(/COC(=O)[C@]1(C)O)C2=O
rat, strain ACI, females, in drinking water, site: liver, lesion: hemangioendothelial sarcoma, dosed 68 weeks, study length 68 weeks
  TD50: 1.52 mg/kg/day
rat, strain ACI, females, in drinking water, site: liver, lesion: liver-cell adenoma, dosed 68 weeks, study length 68 weeks
  TD50: 4.13 mg/kg/day
rat, strain ACI, females, in drinking water, site: liver, lesion: several types, types named in the paper, dosed 68 weeks, study length 68 weeks
  TD50: 1.52 mg/kg/day
rat, strain ACI, males, in drinking water, site: liver, lesion: hemangioendothelial sarcoma, dosed 58 weeks, study length 58 weeks
  TD50: 4.78 mg/kg/day
rat, strain ACI, males, in drinking water, site: liver, lesion: liver-cell adenoma, dosed 58 weeks, study length 58 weeks
  TD50: 1.16 mg/kg/day
rat, strain ACI, males, in drinking water, site: liver, lesion: several types, types named in the paper, dosed 58 weeks, study length 58 weeks
  TD50: 0.662 mg/kg/day

## [Na+]
mouse, strain B6C3F1, females, in drinking water, site: liver, lesion: hyperplastic nodule, dosed 104 weeks, study length 104 weeks
  TD50: 1.33e+06 mg/kg/day
mouse, strain B6C3F1, females, in drinking water, site: lung, lesion: papillary tumor, dosed 104 weeks, study length 104 weeks
  TD50: 4980 mg/kg/day
mouse, strain B6C3F1, males, in drinking water, site: any site (literature study), lesion: several types, types named in the paper, dosed 104 weeks, study length 104 weeks
  TD50: 992 mg/kg/day
mouse, strain B6C3F1, males, in drinking water, site: liver, lesion: hemangioma, dosed 104 weeks, study length 104 weeks
  TD50: 9550 mg/kg/day
mouse, strain B6C3F1, males, in drinking water, site: liver, lesion: hyperplastic nodule, dosed 104 weeks, study length 104 weeks
  TD50: 5970 mg/kg/day
mouse, strain B6C3F1, males, in drinking water, site: lung, lesion: papillary tumor, dosed 104 weeks, study length 104 weeks
  TD50: 3740 mg/kg/day
rat, strain ACI, males, in feed, site: forestomach, lesion: papilloma, dosed 52 weeks, study length 52 weeks
  TD50: 2660 mg/kg/day
rat, strain F344/DuCrj, males, in feed, site: forestomach, lesion: one or several types, types not named, dosed 51 weeks, study length 52 weeks
  carcinogen call: negative (inactive)
rat, strain F344/DuCrj, males, in feed, site: stomach, glandular, lesion: one or several types, types not named, dosed 51 weeks, study length 52 weeks
  carcinogen call: negative (inactive)
rat, strain Fischer 344, males, in feed, site: adrenal medulla, lesion: pheochromocytoma, dosed 104 weeks, study length 104 weeks
  TD50: 2980 mg/kg/day (inactive)
rat, strain Wistar, males, in feed, site: stomach, glandular, lesion: one or several types, types not named, dosed 82 weeks, study length 82 weeks
  carcinogen call: negative (inactive)

## c1ccc2occc2c1
mouse, strain B6C3F1, females, by gavage, site: any site (literature study), lesion: several types, types named in the paper, dosed 103 weeks, study length 104 weeks
  TD50: 45.9 mg/kg/day
mouse, strain B6C3F1, females, by gavage, site: forestomach + liver + lung, lesion: squamous-cell carcinoma + squamous-cell papilloma + hepatocellular adenoma + alveolar/bronchiolar adenoma + alveolar/bronchiolar, dosed 103 weeks, study length 104 weeks
  TD50: 33.4 mg/kg/day
mouse, strain B6C3F1, females, by gavage, site: forestomach, lesion: squamous-cell carcinoma + squamous-cell papilloma, dosed 103 weeks, study length 104 weeks
  TD50: 145 mg/kg/day
mouse, strain B6C3F1, females, by gavage, site: forestomach, lesion: squamous-cell papilloma, dosed 103 weeks, study length 104 weeks
  TD50: 172 mg/kg/day
mouse, strain B6C3F1, females, by gavage, site: liver, lesion: hepatocellular adenoma + hepatocellular carcinoma + neoplastic nodule, dosed 103 weeks, study length 104 weeks
  TD50: 36.4 mg/kg/day
mouse, strain B6C3F1, females, by gavage, site: liver, lesion: hepatocellular adenoma + hepatocellular carcinoma, dosed 103 weeks, study length 104 weeks
  TD50: 36.4 mg/kg/day
mouse, strain B6C3F1, females, by gavage, site: liver, lesion: hepatocellular adenoma, dosed 103 weeks, study length 104 weeks
  TD50: 34.4 mg/kg/day
mouse, strain B6C3F1, females, by gavage, site: lung, lesion: alveolar/bronchiolar adenoma + alveolar/bronchiolar carcinoma, dosed 103 weeks, study length 104 weeks
  TD50: 174 mg/kg/day
mouse, strain B6C3F1, females, by gavage, site: lung, lesion: alveolar/bronchiolar adenoma, dosed 103 weeks, study length 104 weeks
  TD50: 224 mg/kg/day
mouse, strain B6C3F1, females, by gavage, site: multiple organs + spleen, lesion: malignant lymphoma, undifferentiated type, dosed 103 weeks, study length 104 weeks
  TD50: 322 mg/kg/day
mouse, strain B6C3F1, males, by gavage, site: any site (literature study), lesion: several types, types named in the paper, dosed 103 weeks, study length 104 weeks
  TD50: 54.3 mg/kg/day
mouse, strain B6C3F1, males, by gavage, site: forestomach + liver + lung, lesion: squamous-cell carcinoma + squamous-cell papilloma + hepatocellular adenoma + hepatoblastoma + hepatocellular carcinoma + alveolar/, dosed 103 weeks, study length 104 weeks
  TD50: 23.9 mg/kg/day
mouse, strain B6C3F1, males, by gavage, site: forestomach, lesion: squamous-cell carcinoma + squamous-cell papilloma, dosed 103 weeks, study length 104 weeks
  TD50: 108 mg/kg/day
mouse, strain B6C3F1, males, by gavage, site: forestomach, lesion: squamous-cell carcinoma, dosed 103 weeks, study length 104 weeks
  TD50: 383 mg/kg/day
mouse, strain B6C3F1, males, by gavage, site: forestomach, lesion: squamous-cell papilloma, dosed 103 weeks, study length 104 weeks
  TD50: 154 mg/kg/day
mouse, strain B6C3F1, males, by gavage, site: liver, lesion: hepatoblastoma + hepatocellular carcinoma, dosed 103 weeks, study length 104 weeks
  TD50: 114 mg/kg/day
mouse, strain B6C3F1, males, by gavage, site: liver, lesion: hepatoblastoma, dosed 103 weeks, study length 104 weeks
  TD50: 102 mg/kg/day
mouse, strain B6C3F1, males, by gavage, site: liver, lesion: hepatocellular adenoma + hepatoblastoma + hepatocellular carcinoma, dosed 103 weeks, study length 104 weeks
  TD50: 19.8 mg/kg/day
mouse, strain B6C3F1, males, by gavage, site: liver, lesion: hepatocellular adenoma + hepatocellular carcinoma + neoplastic nodule, dosed 103 weeks, study length 104 weeks
  TD50: 21.3 mg/kg/day
mouse, strain B6C3F1, males, by gavage, site: liver, lesion: hepatocellular adenoma + hepatocellular carcinoma, dosed 103 weeks, study length 104 weeks
  TD50: 21.3 mg/kg/day
mouse, strain B6C3F1, males, by gavage, site: liver, lesion: hepatocellular adenoma, dosed 103 weeks, study length 104 weeks
  TD50: 20.5 mg/kg/day
mouse, strain B6C3F1, males, by gavage, site: lung, lesion: alveolar/bronchiolar adenoma + alveolar/bronchiolar carcinoma, dosed 103 weeks, study length 104 weeks
  TD50: 160 mg/kg/day
mouse, strain B6C3F1, males, by gavage, site: lung, lesion: alveolar/bronchiolar adenoma, dosed 103 weeks, study length 104 weeks
  TD50: 136 mg/kg/day
mouse, strain B6C3F1, males, by gavage, site: multiple organs, lesion: malignant lymphoma, lymphocytic type, dosed 103 weeks, study length 104 weeks
  TD50: 919 mg/kg/day
rat, strain Fischer 344, females, by gavage, site: any site (literature study), lesion: several types, types named in the paper, dosed 103 weeks, study length 104 weeks
  TD50: 577 mg/kg/day
rat, strain Fischer 344, females, by gavage, site: kidney, lesion: tubular-cell adenocarcinoma, dosed 103 weeks, study length 104 weeks
  TD50: 424 mg/kg/day
rat, strain Fischer 344, females, by gavage, site: liver, lesion: hepatocellular adenoma + hepatocellular carcinoma + neoplastic nodule, dosed 103 weeks, study length 104 weeks
  TD50: 2090 mg/kg/day
rat, strain Fischer 344, females, by gavage, site: lung, lesion: alveolar/bronchiolar adenoma + alveolar/bronchiolar carcinoma, dosed 103 weeks, study length 104 weeks
  TD50: 418 mg/kg/day
rat, strain Fischer 344, females, by gavage, site: lung, lesion: alveolar/bronchiolar adenoma, dosed 103 weeks, study length 104 weeks
  TD50: 530 mg/kg/day
rat, strain Fischer 344, females, by gavage, site: subcutaneous tissue, lesion: neurilemoma, malignant, dosed 103 weeks, study length 104 weeks
  TD50: 98.8 mg/kg/day
rat, strain Fischer 344, females, by gavage, site: tongue, lesion: squamous-cell papilloma, dosed 103 weeks, study length 104 weeks
  TD50: 574 mg/kg/day
rat, strain Fischer 344, males, by gavage, site: any site (literature study), lesion: several types, types named in the paper, dosed 103 weeks, study length 104 weeks
  TD50: 22.5 mg/kg/day
rat, strain Fischer 344, males, by gavage, site: liver + multiple organs, lesion: mononuclear-cell leukemia, dosed 103 weeks, study length 104 weeks
  TD50: 55.3 mg/kg/day
rat, strain Fischer 344, males, by gavage, site: lung, lesion: alveolar/bronchiolar carcinoma, dosed 103 weeks, study length 104 weeks
  TD50: 166 mg/kg/day
rat, strain Fischer 344, males, by gavage, site: mammary gland, lesion: fibroadenoma, dosed 103 weeks, study length 104 weeks
  TD50: 271 mg/kg/day
rat, strain Fischer 344, males, by gavage, site: pituitary gland, lesion: adenoma, NOS, dosed 103 weeks, study length 104 weeks
  TD50: 45.8 mg/kg/day
rat, strain Fischer 344, males, by gavage, site: testis, lesion: interstitial-cell tumor, dosed 103 weeks, study length 104 weeks
  TD50: 8.03 mg/kg/day (inactive)
rat, strain Fischer 344, males, by gavage, site: thyroid gland, lesion: follicular-cell carcinoma, dosed 103 weeks, study length 104 weeks
  TD50: 389 mg/kg/day
